Data from ChEMBL document CHEMBL1122249, “Synthesis of hypoxanthine, guanine, and 6-thiopurine nucleosides of 6-deoxy-D-allofuranose” (1983).

Columns and labels:
Mus musculus [1] = assay: Average weight change in mouse after the treatment with 200 mg/kg dose of the compound; format: functional
Mus musculus [2] = assay: Survivors after the treatment with 50 mg/kg dose for 5 days in 6 mice; format: functional
L1210 [3] = assay: Median survival time of inhibitory activity against L1210 tumor cells in mouse at the dose of 50 mg/kg; format: functional
L1210 [4] = assay: Median survival time of inhibitory activity against L1210 tumor cells in mouse at the dose of 25 mg/kg; format: functional
Mus musculus [5] = assay: Average weight change in mouse after the treatment with 100 mg/kg dose of the compound; format: functional
Mus musculus [6] = assay: Survivors after the treatment with 12.5 mg/kg dose for 5 days in 6 mice; format: functional
Mus musculus [7] = assay: Survivors after the treatment with 100 mg/kg dose for 5 days in 6 mice; format: functional
Mus musculus [8] = assay: Average weight change in mouse after the treatment with 12.5 mg/kg dose of the compound; format: functional
Mus musculus [9] = assay: Average weight change in mouse after the treatment with 50 mg/kg dose of the compound; format: functional
Mus musculus [10] = assay: Average weight change in mouse after the treatment with 25 mg/kg dose of the compound; format: functional
Mus musculus [11] = assay: Survivors after the treatment with 200 mg/kg dose for 5 days in 6 mice; format: functional
Mus musculus [12] = assay: Survivors after the treatment with 25 mg/kg dose for 5 days in 6 mice; format: functional
L1210 [13] = assay: Median survival time of inhibitory activity against L1210 tumor cells in mice at the dose of 200 mg/kg; format: functional, Mus musculus
L1210 [14] = assay: Median survival time of inhibitory activity against L1210 tumor cells in mouse at the dose of 100 mg/kg; format: functional
L1210 [15] = assay: Median survival time of inhibitory activity against L1210 tumor cells in mouse at the dose of 12.5 mg/kg; format: functional

CC(O)[C@H]1O[C@@H](n2cnc3c(S)ncnc32)[C@H](O)[C@@H]1O (stereo not given in full)
Average weight change (Mus musculus [1]): -4.4 | Survivors (Mus musculus [2]): 6 | T/C (L1210 [3]): 142% | T/C (L1210 [4]): 116% | Average weight change (Mus musculus [5]): -3.6 | Survivors (Mus musculus [6]): 6 | Survivors (Mus musculus [7]): 6 | Average weight change (Mus musculus [8]): -1 | Average weight change (Mus musculus [9]): -1.7 | Average weight change (Mus musculus [10]): -1.4 | Survivors (Mus musculus [11]): 6 | Survivors (Mus musculus [12]): 6 | T/C (L1210 [13]): 148% | T/C (L1210 [14]): 146% | T/C (L1210 [15]): 107%
